Experimental data from patent US8921376B2, “Pyrrolopyridines useful as inhibitors of protein kinase” (Vertex Pharmaceuticals Incorporated, priority 2005, dated 2014).

How the values were obtained:
Assay type in all cases: biochemical
JAK3 = biological target: T1, JAK3 (Homo sapiens, UniProt P52333); assay: JAK3 inhibition assay (33P incorporation into poly(Glu)4Tyr)
T1 sequence (P52333 1-1124): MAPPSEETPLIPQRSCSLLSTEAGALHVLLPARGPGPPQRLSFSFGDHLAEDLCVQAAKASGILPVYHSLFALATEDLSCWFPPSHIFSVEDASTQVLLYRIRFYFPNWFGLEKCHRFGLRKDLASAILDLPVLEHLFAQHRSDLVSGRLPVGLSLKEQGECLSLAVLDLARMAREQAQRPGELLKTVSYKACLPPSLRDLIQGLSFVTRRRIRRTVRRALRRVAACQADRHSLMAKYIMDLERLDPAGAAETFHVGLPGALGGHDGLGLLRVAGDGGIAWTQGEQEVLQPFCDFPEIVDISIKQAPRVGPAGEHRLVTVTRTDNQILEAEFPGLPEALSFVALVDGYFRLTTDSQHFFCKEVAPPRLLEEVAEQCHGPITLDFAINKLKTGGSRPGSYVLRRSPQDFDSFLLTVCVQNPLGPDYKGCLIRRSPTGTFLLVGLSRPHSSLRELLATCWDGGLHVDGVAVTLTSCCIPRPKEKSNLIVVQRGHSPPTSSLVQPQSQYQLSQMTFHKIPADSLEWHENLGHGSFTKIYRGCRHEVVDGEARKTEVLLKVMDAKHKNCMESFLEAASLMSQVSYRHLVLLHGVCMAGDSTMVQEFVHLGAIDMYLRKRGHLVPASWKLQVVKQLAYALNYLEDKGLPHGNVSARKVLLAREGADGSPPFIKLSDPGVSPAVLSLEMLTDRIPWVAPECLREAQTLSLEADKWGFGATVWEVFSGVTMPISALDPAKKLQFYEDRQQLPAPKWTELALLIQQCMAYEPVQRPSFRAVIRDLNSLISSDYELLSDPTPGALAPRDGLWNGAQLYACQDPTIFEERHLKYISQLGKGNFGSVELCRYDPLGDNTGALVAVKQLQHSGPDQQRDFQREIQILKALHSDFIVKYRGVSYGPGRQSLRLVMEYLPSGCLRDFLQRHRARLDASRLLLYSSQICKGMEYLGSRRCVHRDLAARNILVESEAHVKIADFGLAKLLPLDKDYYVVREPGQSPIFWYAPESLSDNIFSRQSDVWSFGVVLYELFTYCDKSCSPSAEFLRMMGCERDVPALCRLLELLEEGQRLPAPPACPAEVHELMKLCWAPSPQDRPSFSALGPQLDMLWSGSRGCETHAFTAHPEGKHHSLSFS
How it was run: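 After TCA quench and filter harvest, scintillation counting of 33P measured phosphorylation of poly(Glu)4Tyr (1 μM) by 1 nM JAK3. The 20-min, 25° C. reaction contained 5 μM ATP (200 μCi/μmole) in pH 7.4 HEPES buffer with 10 mM MgCl2.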

JAK2 = JAK2 (Homo sapiens, UniProt O60674); assay: JAK2 inhibition assay (as Example 3 with JAK-2 enzyme)
JAK2, sequence (O60674 whole entry): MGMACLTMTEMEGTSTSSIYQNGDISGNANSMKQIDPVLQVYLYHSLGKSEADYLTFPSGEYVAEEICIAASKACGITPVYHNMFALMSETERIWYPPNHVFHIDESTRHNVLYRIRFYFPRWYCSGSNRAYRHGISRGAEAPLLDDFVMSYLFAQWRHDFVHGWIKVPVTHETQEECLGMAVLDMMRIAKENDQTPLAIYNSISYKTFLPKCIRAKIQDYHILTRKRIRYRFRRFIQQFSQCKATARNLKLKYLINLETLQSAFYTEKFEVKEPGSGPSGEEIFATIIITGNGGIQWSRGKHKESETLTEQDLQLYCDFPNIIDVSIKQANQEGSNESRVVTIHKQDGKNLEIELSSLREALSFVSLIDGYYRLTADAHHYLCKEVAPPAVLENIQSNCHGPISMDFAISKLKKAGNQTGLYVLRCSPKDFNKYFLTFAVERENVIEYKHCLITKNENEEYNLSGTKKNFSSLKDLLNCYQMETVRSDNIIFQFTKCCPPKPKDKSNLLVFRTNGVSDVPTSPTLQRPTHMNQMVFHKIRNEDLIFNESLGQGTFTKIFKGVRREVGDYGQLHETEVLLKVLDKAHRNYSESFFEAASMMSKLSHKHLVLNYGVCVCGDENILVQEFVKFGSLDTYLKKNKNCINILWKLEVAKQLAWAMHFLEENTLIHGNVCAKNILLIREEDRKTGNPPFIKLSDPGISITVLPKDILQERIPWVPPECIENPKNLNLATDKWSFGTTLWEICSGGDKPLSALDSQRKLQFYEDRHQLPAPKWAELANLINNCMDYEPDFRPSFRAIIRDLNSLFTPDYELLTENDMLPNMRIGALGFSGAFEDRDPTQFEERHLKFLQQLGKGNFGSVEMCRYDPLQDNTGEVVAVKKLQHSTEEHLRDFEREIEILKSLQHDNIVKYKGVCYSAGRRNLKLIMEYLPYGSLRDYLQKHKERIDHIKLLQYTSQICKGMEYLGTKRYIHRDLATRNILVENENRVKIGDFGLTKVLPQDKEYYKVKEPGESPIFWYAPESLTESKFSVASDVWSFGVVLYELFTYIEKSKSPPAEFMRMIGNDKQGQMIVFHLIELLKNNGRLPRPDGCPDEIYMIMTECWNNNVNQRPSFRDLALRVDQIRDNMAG
How it was run: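 In HEPES pH 7.4 buffer with 10 mM MgCl2, 1 mM DTT, 25 mM NaCl and 0.01% BSA, JAK2 enzyme phosphorylated poly(Glu)4Tyr (final 15 μM) using 33P-ATP (final 12 μM) for 20 min at room temperature (25 °C). Reactions stopped with TCA; incorporated 33P measured by scintillation after filtration.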

ROCK I = ROCK I (Homo sapiens, UniProt Q13464); assay: ROCK-I inhibition assay (radioactive enzyme assay, MBP substrate)
ROCK I, sequence (Q13464 whole entry): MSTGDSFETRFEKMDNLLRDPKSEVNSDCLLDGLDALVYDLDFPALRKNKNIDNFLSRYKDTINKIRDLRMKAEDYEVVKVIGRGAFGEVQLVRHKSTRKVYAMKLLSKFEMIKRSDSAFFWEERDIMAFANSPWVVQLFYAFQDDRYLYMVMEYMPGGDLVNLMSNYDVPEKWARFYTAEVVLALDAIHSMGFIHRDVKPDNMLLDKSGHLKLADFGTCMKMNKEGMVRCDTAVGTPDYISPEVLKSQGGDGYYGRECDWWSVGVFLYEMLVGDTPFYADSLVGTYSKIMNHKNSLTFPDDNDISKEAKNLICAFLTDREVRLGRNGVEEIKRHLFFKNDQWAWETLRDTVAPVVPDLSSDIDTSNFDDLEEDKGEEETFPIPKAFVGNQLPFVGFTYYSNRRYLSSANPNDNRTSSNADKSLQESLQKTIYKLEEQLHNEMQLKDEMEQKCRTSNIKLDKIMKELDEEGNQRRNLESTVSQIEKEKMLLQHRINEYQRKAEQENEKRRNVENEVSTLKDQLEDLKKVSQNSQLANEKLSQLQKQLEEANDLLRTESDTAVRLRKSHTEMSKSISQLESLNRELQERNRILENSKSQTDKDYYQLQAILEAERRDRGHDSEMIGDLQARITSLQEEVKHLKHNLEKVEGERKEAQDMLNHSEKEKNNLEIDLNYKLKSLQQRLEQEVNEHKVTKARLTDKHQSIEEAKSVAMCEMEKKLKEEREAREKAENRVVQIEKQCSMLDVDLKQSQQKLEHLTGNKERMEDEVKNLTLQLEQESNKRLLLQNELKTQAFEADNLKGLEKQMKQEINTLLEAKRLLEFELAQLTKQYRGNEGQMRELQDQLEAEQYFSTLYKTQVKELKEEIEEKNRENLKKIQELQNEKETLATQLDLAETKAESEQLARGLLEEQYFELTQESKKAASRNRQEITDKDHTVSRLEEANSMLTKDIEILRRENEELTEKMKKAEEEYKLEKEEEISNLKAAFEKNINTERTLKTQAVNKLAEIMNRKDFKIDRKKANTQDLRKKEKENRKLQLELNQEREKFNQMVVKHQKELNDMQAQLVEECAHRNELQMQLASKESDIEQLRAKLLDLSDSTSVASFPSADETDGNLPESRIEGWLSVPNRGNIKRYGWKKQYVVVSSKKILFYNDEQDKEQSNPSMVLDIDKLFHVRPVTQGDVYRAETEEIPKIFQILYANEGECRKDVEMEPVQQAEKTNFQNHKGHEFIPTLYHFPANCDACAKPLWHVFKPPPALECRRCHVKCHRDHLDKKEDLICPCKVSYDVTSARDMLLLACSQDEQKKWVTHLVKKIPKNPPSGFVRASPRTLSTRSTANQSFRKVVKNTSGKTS
How it was run: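 Human ROCK at 5 nM phosphorylated 27 μM myelin basic protein with 13 μM [γ-33P]ATP (final) in HEPES pH 7.5, MgCl2, NaCl, DTT and 1.5% DMSO. Reactions ran 2 h at room temperature before TCA quench and filter-plate scintillation counting. After background subtraction, data were fit to give Ki(app).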

[1] = Table 6, enzyme inhibition data (Ki)
[2] = enzyme inhibition, Ki(app), Table 5

SMILES: COC(=O)N1CC[C@@H](Nc2c(Cl)cnc3[nH]ccc23)C1 [compound 170]
- Ki (JAK3; [1]): < 500 nM
- Ki (JAK2; [1]): < 500 nM
- Ki (ROCK I; [1]): 500 to 5000 nM

SMILES: CC(C)CN(C)C(=O)c1cc(-c2ccnc3[nH]ccc23)c[nH]1 [compound 310]
- Ki (JAK3; [1]): < 500 nM
- Ki (JAK2; [1]): < 500 nM
- Ki (ROCK I; [1]): 500 to 5000 nM

SMILES: N#CCCN(Cc1ccccc1)C(=O)c1ccc(-c2ccnc3[nH]ccc23)s1 [compound 328]
- Ki (JAK3; [1]): < 500 nM
- Ki (JAK2; [1]): < 500 nM
- Ki (ROCK I; [1]): < 500 nM

SMILES: CN(CCC#N)C(=O)c1cc(-c2ccnc3[nH]ccc23)c[nH]1 [compound 306]
- Ki (JAK3; [1]): < 500 nM
- Ki (JAK2; [1]): < 500 nM
- Ki (ROCK I; [1]): < 500 nM

SMILES: N#CCCN(CCC(F)(F)F)C(=O)c1csc(-c2ccnc3[nH]ccc23)n1 [compound 405, 2-(1H-Pyrrolo[2,3-b]pyridin-4-yl)-thiazole-4-carboxylic acid (2-cyano-ethyl)-(3,3,3-trifluoro-propyl)-amide]
- Ki (JAK3; [1]): < 500 nM
- Ki (JAK2; [1]): < 500 nM
- Ki (ROCK I; [1]): < 500 nM

SMILES: CCC1CCCCN1C(=O)c1csc(-c2ccnc3[nH]ccc23)n1 (stereo not drawn) [compound 423]
- Ki (JAK3; [1]): < 500 nM
- Ki (JAK2; [1]): < 500 nM
- Ki (ROCK I; [1]): < 500 nM

SMILES: CC(=O)N1[C@H](C)CN(c2cccc(-c3ccnc4[nH]ccc34)n2)C[C@@H]1C [compound 22]
- Ki (JAK3; enzyme inhibition, Table 5): < 500 nM
- Ki (JAK2; enzyme inhibition, Table 5): < 500 nM
- Ki (ROCK I; [2]): 500 to 5000 nM

SMILES: COC(=O)N1CC[C@H](Nc2c(Cl)cnc3[nH]ccc23)C1 [compound 166]
- Ki (JAK3; [1]): 500 to 5000 nM
- Ki (JAK2; [1]): < 500 nM
- Ki (ROCK I; [1]): > 4000 nM

SMILES: O=C(c1csc(-c2ccnc3[nH]ccc23)n1)N(CCC(F)(F)F)CC1CC1 [compound 402]
- Ki (JAK3; [1]): < 500 nM
- Ki (JAK2; [1]): < 500 nM
- Ki (ROCK I; [1]): < 500 nM

SMILES: Fc1ccc(-c2ccnc3[nH]ccc23)c(F)c1 [compound 207]
- Ki (JAK3; [1]): < 500 nM
- Ki (JAK2; [1]): 500 to 5000 nM
- Ki (ROCK I; [1]): 500 to 5000 nM

SMILES: CCN(CCC#N)C(=O)c1cc(-c2ccnc3[nH]ccc23)c[nH]1 [compound 297]
- Ki (JAK3; [1]): < 500 nM
- Ki (JAK2; [1]): < 500 nM
- Ki (ROCK I; [1]): < 500 nM

SMILES: CC(C)CN(CC(C)C)C(=O)c1ccc(-c2ccnc3[nH]ccc23)s1 [compound 327]
- Ki (JAK3; [1]): 500 to 5000 nM
- Ki (JAK2; [1]): < 500 nM
- Ki (ROCK I; [1]): < 500 nM

SMILES: OCc1cccc(-c2ccnc3[nH]ccc23)c1 [compound 49, [3-(1H-Pyrrolo[2,3-b]pyridin-4-yl)-phenyl]-methanol]
- Ki (JAK3; enzyme inhibition, Table 5): < 500 nM
- Ki (JAK2; enzyme inhibition, Table 5): 500 to 5000 nM
- Ki (ROCK I; [2]): < 500 nM

SMILES: O=C(c1cccc(-c2ccnc3[nH]ccc23)c1)N1CCCCC1 [compound 93, Piperidin-1-yl-[3-(1H-pyrrolo[2,3-b]pyridin-4-yl)-phenyl]-methanone]
- Ki (JAK3; enzyme inhibition, Table 5): 500 to 5000 nM
- Ki (JAK2; enzyme inhibition, Table 5): > 5000 nM
- Ki (ROCK I; [2]): 500 to 5000 nM

SMILES: CN(CCC#N)C(=O)c1cc(-c2c(F)cnc3[nH]ccc23)c[nH]1 [compound 386]
- Ki (JAK3; [1]): < 500 nM
- Ki (JAK2; [1]): < 500 nM
- Ki (ROCK I; [1]): 500 to 5000 nM

SMILES: N#CCc1cccc(-c2ccnc3[nH]ccc23)c1 [compound 63, [3-(1H-Pyrrolo[2,3-b]pyridin-4-yl)-phenyl]-acetonitrile]
- Ki (JAK3; enzyme inhibition, Table 5): < 500 nM
- Ki (JAK2; enzyme inhibition, Table 5): < 500 nM
- Ki (ROCK I; [2]): < 500 nM

SMILES: Cc1ccc(-c2ccnc3[nH]ccc23)c(C)c1 [compound 218]
- Ki (JAK3; [1]): 500 to 5000 nM
- Ki (JAK2; [1]): > 5000 nM
- Ki (ROCK I; [1]): < 500 nM

SMILES: N#CC1CCCN1C(=O)c1cc(-c2c(Cl)cnc3[nH]ccc23)c[nH]1 (stereo not drawn) [compound 357]
- Ki (JAK3; [1]): < 500 nM
- Ki (JAK2; [1]): < 500 nM
- Ki (ROCK I; [1]): 500 to 5000 nM

SMILES: O=C(NC1CCCCC1)c1cc(-c2ccnc3[nH]ccc23)c[nH]1 [compound 288]
- Ki (JAK3; [1]): < 500 nM
- Ki (JAK2; [1]): < 500 nM
- Ki (ROCK I; [1]): < 500 nM

SMILES: CC(C)Oc1ccccc1-c1ccnc2[nH]ccc12 [compound 230]
- Ki (JAK3; [1]): 500 to 5000 nM
- Ki (JAK2; [1]): 500 to 5000 nM
- Ki (ROCK I; [1]): > 4000 nM

SMILES: CC(C)CC(=O)Nc1nc(-c2ccnc3[nH]ccc23)cs1 [compound 378]
- Ki (JAK3; [1]): < 500 nM
- Ki (JAK2; [1]): < 500 nM
- Ki (ROCK I; [1]): < 500 nM

SMILES: Nc1nc(-c2ccnc3[nH]ccc23)ncc1F [compound 203]
- Ki (JAK3; [1]): 500 to 5000 nM
- Ki (JAK2; [1]): 500 to 5000 nM
- Ki (ROCK I; [1]): > 4000 nM

SMILES: c1ccc(Oc2ccccc2-c2ccnc3[nH]ccc23)cc1 [compound 240]
- Ki (JAK3; [1]): > 5000 nM
- Ki (JAK2; [1]): > 5000 nM
- Ki (ROCK I; [1]): > 4000 nM
